The source made the active and inactive calls. The calls are words filed in the database; no cut-off is given here.
Tests used:
[1] = molecular target: T1, 72 kDa type IV collagenase (Homo sapiens, UniProt P08253); assay: Inhibition of human MMP2 using (7-methoxycoumarin-4-yl) acetyl pro-Leu-Gly-Leu-[3-(2,4-dinitrophenyl)-L-2,3-diamino-propionyl]-Ala-Arg-NH2 as substrate preincubated for 30 mins followed by substrate addition by microplate reader analysis
Target sequence in this assay (P08253 whole entry): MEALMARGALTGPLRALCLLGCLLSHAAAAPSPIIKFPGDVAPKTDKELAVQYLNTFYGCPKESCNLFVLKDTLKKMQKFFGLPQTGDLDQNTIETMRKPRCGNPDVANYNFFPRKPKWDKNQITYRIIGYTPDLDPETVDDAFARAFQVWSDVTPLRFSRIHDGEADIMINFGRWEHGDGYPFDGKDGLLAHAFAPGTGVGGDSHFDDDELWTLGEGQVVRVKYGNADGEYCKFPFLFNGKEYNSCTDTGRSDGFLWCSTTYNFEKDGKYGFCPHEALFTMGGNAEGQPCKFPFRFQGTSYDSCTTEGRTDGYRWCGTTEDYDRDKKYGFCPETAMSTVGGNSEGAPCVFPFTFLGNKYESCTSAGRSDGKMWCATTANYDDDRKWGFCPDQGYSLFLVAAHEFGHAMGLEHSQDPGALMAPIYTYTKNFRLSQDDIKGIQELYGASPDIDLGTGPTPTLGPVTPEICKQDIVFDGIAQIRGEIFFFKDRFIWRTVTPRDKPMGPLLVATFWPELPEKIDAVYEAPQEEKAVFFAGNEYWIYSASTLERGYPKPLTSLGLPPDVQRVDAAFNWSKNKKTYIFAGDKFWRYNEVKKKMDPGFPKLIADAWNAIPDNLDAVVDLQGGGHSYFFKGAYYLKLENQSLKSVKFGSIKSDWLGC

[2] = molecular target: T2, Matrix metalloproteinase-9 (Homo sapiens, UniProt P14780); assay: Inhibition of human MMP9 using (7-methoxycoumarin-4-yl) acetyl pro-Leu-Gly-Leu-[3-(2,4-dinitrophenyl)-L-2,3-diamino-propionyl]-Ala-Arg-NH2 as substrate preincubated for 30 mins followed by substrate addition by microplate reader analysis
Collagenase 3 [3] = molecular target: T3, Collagenase 3 (Homo sapiens, UniProt P45452); assay: Inhibition of MMP13 (unknown origin) using (7-methoxycoumarin-4-yl) acetyl pro-Leu-Gly-Leu-[3-(2,4-dinitrophenyl)-L-2,3-diamino-propionyl]-Ala-Arg-NH2 as substrate preincubated for 30 mins followed by substrate addition by microplate reader analysis
Neutrophil collagenase [4] = molecular target: T4, Neutrophil collagenase (Homo sapiens, UniProt P22894); assay: Inhibition of MMP8 (unknown origin) using (7-methoxycoumarin-4-yl) acetyl pro-Leu-Gly-Leu-[3-(2,4-dinitrophenyl)-L-2,3-diamino-propionyl]-Ala-Arg-NH2 as substrate preincubated for 30 mins followed by substrate addition by microplate reader analysis
Target sequence in this assay (P22894 whole entry): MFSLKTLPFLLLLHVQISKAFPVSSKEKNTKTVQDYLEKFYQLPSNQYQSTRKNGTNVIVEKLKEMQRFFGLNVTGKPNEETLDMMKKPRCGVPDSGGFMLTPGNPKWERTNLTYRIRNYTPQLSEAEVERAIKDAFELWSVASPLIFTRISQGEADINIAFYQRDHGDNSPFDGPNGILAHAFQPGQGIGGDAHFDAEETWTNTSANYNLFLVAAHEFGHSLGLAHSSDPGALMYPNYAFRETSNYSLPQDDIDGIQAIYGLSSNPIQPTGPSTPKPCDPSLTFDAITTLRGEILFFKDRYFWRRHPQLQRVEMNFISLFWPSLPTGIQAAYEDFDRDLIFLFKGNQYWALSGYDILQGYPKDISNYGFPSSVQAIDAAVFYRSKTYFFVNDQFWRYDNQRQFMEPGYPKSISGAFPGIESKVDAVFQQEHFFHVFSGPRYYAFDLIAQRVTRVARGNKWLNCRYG

[5] = molecular target: T2, Matrix metalloproteinase-9; assay: Inhibition of human MMP9 up to 100 uM using (7-methoxycoumarin-4-yl) acetyl pro-Leu-Gly-Leu-[3-(2,4-dinitrophenyl)-L-2,3-diamino-propionyl]-Ala-Arg-NH2 as substrate preincubated for 30 mins followed by substrate addition by microplate reader analysis
[6] = molecular target: T1, 72 kDa type IV collagenase; assay: Inhibition of human MMP2 up to 100 uM using (7-methoxycoumarin-4-yl) acetyl pro-Leu-Gly-Leu-[3-(2,4-dinitrophenyl)-L-2,3-diamino-propionyl]-Ala-Arg-NH2 as substrate preincubated for 30 mins followed by substrate addition by microplate reader analysis
Target sequence in this assay (P08253 110-660 limits assumed): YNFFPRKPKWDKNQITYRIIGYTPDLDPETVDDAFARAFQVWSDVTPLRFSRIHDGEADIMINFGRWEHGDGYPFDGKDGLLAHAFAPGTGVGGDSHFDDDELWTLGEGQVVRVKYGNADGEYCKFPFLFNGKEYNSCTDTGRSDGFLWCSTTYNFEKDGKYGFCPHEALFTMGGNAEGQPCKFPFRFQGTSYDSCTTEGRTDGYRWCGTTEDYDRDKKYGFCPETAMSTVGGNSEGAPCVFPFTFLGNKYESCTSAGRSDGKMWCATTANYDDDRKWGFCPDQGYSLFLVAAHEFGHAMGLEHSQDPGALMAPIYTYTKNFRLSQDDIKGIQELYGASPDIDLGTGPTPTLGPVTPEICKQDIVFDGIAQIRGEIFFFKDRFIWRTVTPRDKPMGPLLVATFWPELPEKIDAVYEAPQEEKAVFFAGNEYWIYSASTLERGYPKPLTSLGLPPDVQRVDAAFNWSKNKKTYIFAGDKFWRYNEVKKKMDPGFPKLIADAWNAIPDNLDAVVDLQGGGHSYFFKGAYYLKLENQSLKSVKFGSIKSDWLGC

Collagenase 3 [7] = molecular target: T3, Collagenase 3; assay: Inhibition of MMP13 (unknown origin) up to 100 uM using (7-methoxycoumarin-4-yl) acetyl pro-Leu-Gly-Leu-[3-(2,4-dinitrophenyl)-L-2,3-diamino-propionyl]-Ala-Arg-NH2 as substrate preincubated for 30 mins followed by substrate addition by microplate reader analysis
Neutrophil collagenase [8] = molecular target: T4, Neutrophil collagenase; assay: Inhibition of MMP8 (unknown origin) up to 100 uM using (7-methoxycoumarin-4-yl) acetyl pro-Leu-Gly-Leu-[3-(2,4-dinitrophenyl)-L-2,3-diamino-propionyl]-Ala-Arg-NH2 as substrate preincubated for 30 mins followed by substrate addition by microplate reader analysis
Target sequence in this assay (P22894 101-467 limits assumed): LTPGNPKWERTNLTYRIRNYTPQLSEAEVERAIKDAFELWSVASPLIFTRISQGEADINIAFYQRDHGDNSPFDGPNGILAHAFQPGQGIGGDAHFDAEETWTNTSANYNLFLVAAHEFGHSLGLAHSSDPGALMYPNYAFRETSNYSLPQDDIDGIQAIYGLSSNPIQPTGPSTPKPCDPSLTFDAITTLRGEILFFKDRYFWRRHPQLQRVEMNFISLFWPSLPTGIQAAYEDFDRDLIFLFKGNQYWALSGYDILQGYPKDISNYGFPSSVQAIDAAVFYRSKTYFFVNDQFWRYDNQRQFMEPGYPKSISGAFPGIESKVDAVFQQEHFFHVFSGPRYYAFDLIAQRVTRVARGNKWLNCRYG

T2 sequence (P14780 whole entry): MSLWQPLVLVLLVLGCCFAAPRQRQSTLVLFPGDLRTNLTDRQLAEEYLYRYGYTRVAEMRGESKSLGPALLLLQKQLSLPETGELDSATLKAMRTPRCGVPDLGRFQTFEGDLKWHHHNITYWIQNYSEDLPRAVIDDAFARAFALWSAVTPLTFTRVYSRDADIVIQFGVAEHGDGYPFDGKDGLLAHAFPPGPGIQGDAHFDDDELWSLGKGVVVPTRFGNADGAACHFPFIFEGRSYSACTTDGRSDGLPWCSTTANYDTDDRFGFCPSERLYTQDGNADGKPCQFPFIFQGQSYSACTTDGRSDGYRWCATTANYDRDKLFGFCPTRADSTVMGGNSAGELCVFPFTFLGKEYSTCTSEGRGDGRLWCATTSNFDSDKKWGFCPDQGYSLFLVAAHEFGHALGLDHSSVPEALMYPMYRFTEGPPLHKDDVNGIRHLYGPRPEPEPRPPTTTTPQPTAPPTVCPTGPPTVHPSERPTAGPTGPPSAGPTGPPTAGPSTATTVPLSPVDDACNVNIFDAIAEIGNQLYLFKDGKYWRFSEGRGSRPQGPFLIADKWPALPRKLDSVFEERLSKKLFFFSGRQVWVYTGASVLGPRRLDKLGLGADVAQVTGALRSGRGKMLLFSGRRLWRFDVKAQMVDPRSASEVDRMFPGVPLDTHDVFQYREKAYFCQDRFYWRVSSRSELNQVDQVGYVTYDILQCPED

IC50 [1] [nM]	IC50 [2] [nM]	IC50 (Collagenase 3 [3]) [nM]	IC50 (Neutrophil collagenase [4]) [nM]	inhibition [5]	inhibition [6]	inhibition (Collagenase 3 [7])	inhibition (Neutrophil collagenase [8])	SMILES
9.25	8.85	2.17	–	–	–	–	–	COc1ccc(-c2ccc(S(=O)(=O)NC(C(C)C)P(=O)(O)O)cc2)cc1 (racemic)
791	> 100000	93.8	42.2	–	–	–	–	COc1ccc(-c2ccc(S(=O)(=O)N[C@H](CCCCCF)P(=O)(O)O)cc2)cc1
11.7	18.5	2.41	–	–	–	–	–	CC(C)C(NS(=O)(=O)c1ccc(-c2ccc(OCCF)cc2)cc1)P(=O)(O)O (stereo not given)
> 100000	> 100000	> 100000	> 100000	–	–	–	–	Cc1ccc(-c2ccc(S(=O)(=O)NC(C(C)C)P(=O)(O)O)cc2)s1 (stereo not given)
6.5	19	5.37	–	–	–	–	–	COc1ccc(-c2ccc(S(=O)(=O)N[C@@H](CCCCCF)P(=O)(O)O)cc2)cc1
–	–	–	–	inactive	inactive	inactive	inactive	COc1ccc(S(=O)(=O)N(Cc2ccccc2)C(CC(C)C)P(=O)(O)O)cc1 (stereo not given)
56.3	96.4	73.1	83.1	–	–	–	–	CC(C)C(N(Cc1ccccc1)S(=O)(=O)c1ccc(-c2ccc(OCCF)cc2)cc1)P(=O)(O)O (stereo not given)
–	–	–	–	inactive	inactive	inactive	inactive	COc1ccc(S(=O)(=O)N(Cc2cccnc2)C(CC(C)C)P(=O)(O)O)cc1 (stereo not given)
> 100000	> 100000	> 100000	> 100000	–	–	–	–	COCc1ccc(-c2ccc(S(=O)(=O)NC(C(C)C)P(=O)(O)O)cc2)s1 (stereo not given)
628	393	1030	> 100000	–	–	–	–	CC(C)C(NS(=O)(=O)c1ccc(-c2ccc(F)nc2)cc1)P(=O)(O)O (stereo not given)
–	–	–	–	inactive	inactive	inactive	inactive	COc1ccc(S(=O)(=O)N(Cc2ccccc2)C(C(C)C)P(=O)(O)O)cc1 (stereo not given)
–	–	–	–	inactive	inactive	inactive	inactive	COc1ccc(S(=O)(=O)N(Cc2cccnc2)C(C(C)C)P(=O)(O)O)cc1 (stereo not given)

From ChEMBL document CHEMBL3751799, “Fluorinated matrix metalloproteinases inhibitors--Phosphonate based potential probes for positron emission tomography” (Bioorg Med Chem, 2016)
